The target of series [1] is T1, Topo I (Bos taurus, UniProt F1MN93).
T1 construct: purchased Takara Biotechnology, Dalian, China
T1 sequence (F1MN93 1-767): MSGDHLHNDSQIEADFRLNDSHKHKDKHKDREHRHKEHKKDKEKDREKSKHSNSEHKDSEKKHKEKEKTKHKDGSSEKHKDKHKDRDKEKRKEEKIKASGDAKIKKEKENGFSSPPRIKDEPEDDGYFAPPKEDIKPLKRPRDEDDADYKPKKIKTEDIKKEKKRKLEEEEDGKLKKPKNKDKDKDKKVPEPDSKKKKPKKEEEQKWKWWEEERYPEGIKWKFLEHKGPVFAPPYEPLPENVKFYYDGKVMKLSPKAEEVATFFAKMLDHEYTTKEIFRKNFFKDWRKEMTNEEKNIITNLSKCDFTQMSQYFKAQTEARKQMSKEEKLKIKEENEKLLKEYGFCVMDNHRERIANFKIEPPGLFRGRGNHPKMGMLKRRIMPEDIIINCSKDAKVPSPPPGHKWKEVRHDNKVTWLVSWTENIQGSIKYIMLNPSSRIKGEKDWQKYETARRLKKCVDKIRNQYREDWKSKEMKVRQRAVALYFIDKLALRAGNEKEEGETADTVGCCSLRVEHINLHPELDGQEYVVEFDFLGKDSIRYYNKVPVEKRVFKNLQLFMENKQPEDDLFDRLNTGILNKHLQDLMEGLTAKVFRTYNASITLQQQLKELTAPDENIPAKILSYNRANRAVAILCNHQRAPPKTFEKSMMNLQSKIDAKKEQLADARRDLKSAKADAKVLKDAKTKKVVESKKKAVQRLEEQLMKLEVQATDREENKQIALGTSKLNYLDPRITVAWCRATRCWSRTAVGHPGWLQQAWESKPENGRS
As to the kind of experiment: Topo I-mediated DNA relaxation assay. It counts as biochemical. To be noted: relaxation of supercoiled pBR322. On the procedure: In brief, 2 μL Topo I Assay Buffer, 2 μL 0.1% BSA solution, 1 μL 1 U/μL Topo I solution, 0.2 μL test compound solution, and 0.5 μL DNA solution (0.25 μg) were added orderly with the corresponding volume of ultrapure water to make the above system volume 20 μL (Takara Biotechnology, Dalian, China). The above system was incubated at 37°C, the incubation continued for 45 min, and then 10 μL of a mixture of equal phenol and chloroform organic solvent was added for extraction to terminate the reaction. The aqueous phase was separated by centrifugation, the corresponding volume of 6 × DNA loading buffer was added, and then 0.8% agarose gel and 1 × TAE electrophoresis solution were used for electrophoresis at 110 V for 1 h. After electrophoresis, the gel was placed in a 0.5 μg/mL of ethidium bromide (EB) solution for 30 min, then recorded and photographed at 302 nm wavelength.

Series [2] concerns SK-Hep-1. Description: MTT anti-proliferation assay, SK-Hep-1. It counts as cell-based, human. To be noted: read-out: IC50 ± SD SK-Hep-1.
Series [3] deals with HuH7. As to the kind of experiment: MTT anti-proliferation assay, HuH7. It counts as cell-based, human. To be noted: 72 h, read-out: IC50 ± SD HuH7. For orientation: Tetrazolium assays rely on reduction of a dye to a coloured formazan, in cell work by metabolically active cells.
The test system of series [4] is HepG2. Description: MTT anti-proliferation assay, HepG2. The series is classed as cell-based, human. The conditions noted are these: read-out: IC50 ± SD HepG2.
Series [5] in a line: Oral pharmacokinetics study. The conditions noted are these: for T1/2 / Tmax: n = 3. It counts as in vivo, SD rats. On the procedure:
Six 250–280 g male SD rats, which are 8-week-old, were randomly divided into 2 groups (n = 3). The dose selection is based on previously described ([Xiaoling Hu et al., 2022]). 100 mg/kg N53 and N53·HCl dissolved in normal saline containing 2.5% polyoxyethylene castor oil and 2.5% DMSO was administrated by oral medications. The first group was given 100 mg/kg of N53 by intragastric administration, and the second group was given 100 mg/kg of N53·HCl by intragastric administration. For intragastric administration, blood samples were collected from the orbits of the rats in heparin sodium tubes at 0, 5, 15, 30 min, 1, 2, 4, 6, 8, 12, and 24 h after dosing; The above blood samples were centrifuged (2,500 rpm, 6 min, 4°C) to plasma, and stored at −80°C to be analyzed by LC-MS/MS. Firstly, 5 times methanol was added to each serum sample and mixed well. After centrifugation at 1,600 rpm for 10 min at 4°C, the samples were filtered through a 0.22 μm filter for analysis. The HPLC analysis was carried out on an ODS-C18 column (4.6 mm × 50 mm, 3 μm). The HPLC mobile phases consisted of water (0.1% formic acid) (A) and 95% acetonitrile (including 0.1% formic acid) (B), separated by gradient chromatography at 0.4 mL/min. Chromatographic conditions: mobile phase: 0–0.5 min, acetonitrile: H2O = 10:90; 0.5–0.6 min acetonitrile: H2O = 100:0, 0.6–2.4 min, acetonitrile: H2O = 100:0, 2.4–2.5 min acetonitrile: H2O = 10:90; wavelength: 254 nm; column temperature: 25°C. The column eluate was directly introduced into ES-API. The MS/MS instrument was conducted using the electrospray ionization (ESI) source with a positive ion detection mode. The analytes (N53·HCl) and IS (Propranolol) were all detected by multiple reactions monitoring (MRM) scan mode of transitions from precursor ions to product ions at m/z 435.2→192.1 for N53·HCl (retention time: 1.54 min), m/z 260.0→116.0 for IS (retention time: 1.54 min). The optimized instrument parameters are as follows: declustering potentials (DP) at 51 V for N53·HCl, 78 V for IS; entrance potentials (EP) at 8V; collision energies (CE) at 34 V for N53·HCl, 25 V for IS; collision cell exit potentials (CXP) at 7 V; curtain gas (CUR) at a pressure of 10 psi; turbo spray voltage at 5,500 V. Data acquisition of LC-MS/MS was performed with AnalystTM 1.5 software package (Applied Biosystems, MA, United States). The pharmacokinetic parameters for N53 and N53·HCl were calculated by using the non-compartment method (statistical moment) in DAS 2.0 software (Pharmacokinetics Institute of China).

The mark [6] stands for this setting: 100 mg/kg p.o., n = 3, mean ± SD.

Values joined by “and” are separate entries in the source; they are usually repeats but may differ in a detail not shown here. Identical values can stand only once. Counter-ions that a name gives are not always drawn. Like-named read-outs stand apart in the source and are kept apart here.

Here are results for two compounds from PMC11570809, “Novel N-phenyl-2-(aniline) benzamide hydrochloride salt development for colon cancer therapy” (Frontiers in Pharmacology, 2024).

Take `Cc1c(Cl)cccc1Nc1ccccc1C(=O)Nc1ccc(N2CCN(C)CC2)cc1` [N53·HCl, 4-(4-(2-((3-chloro-2-methylphenyl)amino)ben-zamido)phenyl)-1-methylpiperazin-1-ium]: in series [1], the “Inhibition rate (%) of Topo I (100 μM)” value was found to be 55.1%. Moreover, the IC50 in series [2] (Homo sapiens, SK-HEP1, 72 h) was found to be 8.18 µM. In addition, the concentration for half-maximal inhibition (IC50) in series [3] was 11.7 ± 0.75 µM. Further, the IC50 in series [4] (Homo sapiens, HepG2, 72 h) came out at 4.12 ± 0.39 µM. In series [5] (100 mg/kg p.o.), the “Cmax (peak plasma concentration)” value amounted to 680.0 µg/mL, the T1/2 is 22.3 ± 9.9 h and the Tmax turned out to be 6.7 ± 4.6 h. Also, in series [5] (setting [6]), the “AUC0(-∞)” value was 21200 ± 8000 ng·h/mL, the CLz amounted to 85 ± 26.7 mL/min/kg, the Cmax was determined as 680 ± 180 µg/mL and the Vz/F amounted to 149.7 ± 11.6 L/kg. Besides, in series [5] (male, SD, rat, plasma, po, 100 mg/kg, 100 mg/kg p.o., read-out: Tmax), the time to peak (Tmax) was determined as 6.67 h. In series [5] (oral), the “AUC0–∞ increase relative to N53” value is reported as 3 fold and the “Cmax increase relative to N53” value came to 2 fold.
As to `Cc1c(Cl)cccc1Nc1ccccc1C(=O)Nc1ccc(N2CCN(C)CC2)cc1` [Compound N53, 2-((3-chloro-2-methylphenyl)amino)-N-(4-(4-methylp-iperazin-1-yl)phenyl)benzamide], in series [1], the “Inhibition rate (%) of Topo I (100 μM)” value amounted to 11.7%. Also, the IC50 in series [2] (72 h) came to 5.66 ± 0.47 µM. Moreover, the IC50 in series [3] was found to be 3.67 ± 0.38 µM. Further, in series [4] (72 h), the IC50 is 2.31 ± 0.09 µM. In series [5] (100 mg/kg p.o.), the “Cmax (peak plasma concentration)” value was 333.7 µg/mL and 333 µg/mL; the T1/2 was 10.78 h and 10.8 ± 0.7 h; the Tmax stood at 6.0 ± 2.0 h. Moreover, in series [5] (setting [6]), the “AUC0(-∞)” value is 7200 ± 700 ng·h/mL, the CLz worked out at 232 ± 21.7 mL/min/kg and the Cmax turned out to be 330 ± 40 µg/mL. Besides, the Vd/F in series [5] (male, SD, rat, plasma, po, 100 mg/kg, 100 mg/kg p.o., n = 3, mean ± SD, read-out: Vz/F) was determined as 217 ± 33.3 L/kg.

A word on the IC50: it is the concentration that inhibits the measured activity by half. Broadly, the Tmax is the time at which the peak concentration occurs. The Cmax is the highest concentration seen after dosing.
